Values of other authors, collected in patent US8536169B2, “Compounds” (Glaxo Group Limited, priority 2008, dated 2013).

Assays:
[1] = tested on: Class I PI3-kinases; conditions: read-out: IC50 against each of the various Class I PI3-kinases
[2] = tested on: neutrophils
[3] = tested on: neutrophils; remark: listed apart in the source
[4] = tested on: neutrophils; conditions: treatment of neutrophils; Thelen et al. 1994
[5] = tested on: phospholipases

Molecule | IC50 [1] | superoxide release [2] | neutrophil migration [3] | fMLP-induced respiratory burst response [4] | inhibitory activity on phospholipases [5]
wortmannin | 1 to 10 nM | block | block | prevents | –
O=c1cc(N2CCOCC2)oc2c(-c3ccccc3)cccc12 [LY294002] | – | block | block | – | some inhibitory activity
